The record followed here is patent US10966430B2, “Natural fungicide composition” (GRIFFITH FOODS INTERNATIONAL INC., priority 2013, dated 2021).

By % Inhibition is commonly meant the relative decrease from the control value, in per cent. Read a low % Inhibition as a response near the control.

In the assay the test system is Mycosphaerella fijiensis. The assay can be described thus: Second field trials: in vitro fungicidal activity, length of germinated ascospores on water-agar. It is filed as cell-based. To be noted: for % Inhibition: ascospores incubated 48 hours at 26° C. in darkness. The protocol: Additional field trials were conducted to evaluate the in vitro fungicidal activity of 14 composition embodiments in the treatment of Mycosphaerella fijiensis.
Culture media comprising 2% water-agar (Difco® Bacto® Agar) and 0.001, 0.01, 0.1, 1, 10, 100, and 1,000 mg/L of the active substance were each prepared in a petri dish for each composition. A separate culture media without any active substance was used as a control. For comparative fungicides F-11-01 to F-11-12 listed in Table 1 below, the active substance was the same as the composition as a whole.
Ascospores of Mycosphaerella fijiensis obtained from a banana plantation that had not been treated with any fungicides were discharged into each petri dish. After discharging the ascospores of Mycosphaerella fijiensis, each sample was incubated for 48 hours at 26° C. in complete darkness. After 48 hours of incubation, the length of 100 germinated ascospores at each concentration was measured.
After collecting the data, the average length of the germinated ascospores was calculated for each concentration. The average inhibition percentage was calculated for each sample fungicide at each concentration using the following formula:
where: • Lcontrol=average length of germinated ascospores of control sample • Lsample=average length of germinated ascospores of sample fungicide.
The average inhibition percentage was used to calculate EC50 for each sample fungicide. EC50 is the half maximal effective concentration, which refers to the concentration of sample fungicide that induces a response halfway between the baseline and maximum after a specified exposure time.

Turning to Polysorbate 80 [Fungicide F-11-09], the “% Inhibition” value runs as follows: (0.001 mg/L) 37.98%; (0.01 mg/L) 42.6%; (0.1 mg/L) 11.91%; (1 mg/L) 31.87%; (10 mg/L) 52.04%; (100 mg/L) 46.24%. Further, for the setting “natural log belonging to the EC50 column”, the “Natural Log” value was 10.45.
